From doi:10.1101/2023.11.24.568596v1 (biorxiv, 2023) come the findings set out here.

Conditions in all cases: binder
The target in assay [1] is CDK2 (Homo sapiens, UniProt P24941).
For assay [2], the target named is T1, CaMK4 (Homo sapiens, UniProt Q16566).
T1 sequence (Q16566 1-473): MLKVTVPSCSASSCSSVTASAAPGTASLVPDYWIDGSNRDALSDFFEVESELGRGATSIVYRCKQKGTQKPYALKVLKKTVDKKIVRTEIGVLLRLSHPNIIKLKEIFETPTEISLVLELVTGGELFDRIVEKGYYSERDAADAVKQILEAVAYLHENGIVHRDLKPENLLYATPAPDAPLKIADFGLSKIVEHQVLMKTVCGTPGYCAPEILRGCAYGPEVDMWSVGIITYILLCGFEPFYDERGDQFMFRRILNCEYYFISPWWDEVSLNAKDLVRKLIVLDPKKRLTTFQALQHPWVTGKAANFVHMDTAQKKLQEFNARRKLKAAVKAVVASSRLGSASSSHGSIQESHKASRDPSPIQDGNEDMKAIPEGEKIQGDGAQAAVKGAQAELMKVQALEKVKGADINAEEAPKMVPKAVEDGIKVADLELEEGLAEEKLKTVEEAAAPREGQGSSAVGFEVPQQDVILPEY

Assay [3] addresses DAPK1 (Homo sapiens, UniProt P53355).
Assay [4] addresses T2, DCAMKL1 (Homo sapiens, UniProt O15075).
T2 sequence (O15075 1-740): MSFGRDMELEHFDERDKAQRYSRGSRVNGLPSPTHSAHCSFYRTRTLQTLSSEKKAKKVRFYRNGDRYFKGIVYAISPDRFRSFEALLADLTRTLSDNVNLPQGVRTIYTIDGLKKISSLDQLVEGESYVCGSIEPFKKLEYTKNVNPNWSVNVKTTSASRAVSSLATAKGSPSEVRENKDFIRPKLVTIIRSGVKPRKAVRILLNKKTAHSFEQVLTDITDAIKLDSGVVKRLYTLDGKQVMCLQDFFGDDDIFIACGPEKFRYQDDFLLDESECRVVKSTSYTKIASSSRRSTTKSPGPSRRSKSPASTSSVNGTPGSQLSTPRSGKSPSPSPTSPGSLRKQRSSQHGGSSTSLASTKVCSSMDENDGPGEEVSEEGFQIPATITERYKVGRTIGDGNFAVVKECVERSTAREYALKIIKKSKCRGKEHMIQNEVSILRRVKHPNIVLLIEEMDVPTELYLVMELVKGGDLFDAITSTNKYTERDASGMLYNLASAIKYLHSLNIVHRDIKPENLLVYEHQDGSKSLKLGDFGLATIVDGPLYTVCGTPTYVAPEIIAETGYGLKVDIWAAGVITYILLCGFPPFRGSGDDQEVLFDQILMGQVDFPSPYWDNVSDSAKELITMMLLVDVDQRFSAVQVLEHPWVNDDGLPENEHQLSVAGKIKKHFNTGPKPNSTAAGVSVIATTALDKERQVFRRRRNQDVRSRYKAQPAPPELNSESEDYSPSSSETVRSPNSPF

Assay [5] has as its target T3, MAP3K5 (Homo sapiens, UniProt Q99683).
T3 sequence (Q99683 1-1374): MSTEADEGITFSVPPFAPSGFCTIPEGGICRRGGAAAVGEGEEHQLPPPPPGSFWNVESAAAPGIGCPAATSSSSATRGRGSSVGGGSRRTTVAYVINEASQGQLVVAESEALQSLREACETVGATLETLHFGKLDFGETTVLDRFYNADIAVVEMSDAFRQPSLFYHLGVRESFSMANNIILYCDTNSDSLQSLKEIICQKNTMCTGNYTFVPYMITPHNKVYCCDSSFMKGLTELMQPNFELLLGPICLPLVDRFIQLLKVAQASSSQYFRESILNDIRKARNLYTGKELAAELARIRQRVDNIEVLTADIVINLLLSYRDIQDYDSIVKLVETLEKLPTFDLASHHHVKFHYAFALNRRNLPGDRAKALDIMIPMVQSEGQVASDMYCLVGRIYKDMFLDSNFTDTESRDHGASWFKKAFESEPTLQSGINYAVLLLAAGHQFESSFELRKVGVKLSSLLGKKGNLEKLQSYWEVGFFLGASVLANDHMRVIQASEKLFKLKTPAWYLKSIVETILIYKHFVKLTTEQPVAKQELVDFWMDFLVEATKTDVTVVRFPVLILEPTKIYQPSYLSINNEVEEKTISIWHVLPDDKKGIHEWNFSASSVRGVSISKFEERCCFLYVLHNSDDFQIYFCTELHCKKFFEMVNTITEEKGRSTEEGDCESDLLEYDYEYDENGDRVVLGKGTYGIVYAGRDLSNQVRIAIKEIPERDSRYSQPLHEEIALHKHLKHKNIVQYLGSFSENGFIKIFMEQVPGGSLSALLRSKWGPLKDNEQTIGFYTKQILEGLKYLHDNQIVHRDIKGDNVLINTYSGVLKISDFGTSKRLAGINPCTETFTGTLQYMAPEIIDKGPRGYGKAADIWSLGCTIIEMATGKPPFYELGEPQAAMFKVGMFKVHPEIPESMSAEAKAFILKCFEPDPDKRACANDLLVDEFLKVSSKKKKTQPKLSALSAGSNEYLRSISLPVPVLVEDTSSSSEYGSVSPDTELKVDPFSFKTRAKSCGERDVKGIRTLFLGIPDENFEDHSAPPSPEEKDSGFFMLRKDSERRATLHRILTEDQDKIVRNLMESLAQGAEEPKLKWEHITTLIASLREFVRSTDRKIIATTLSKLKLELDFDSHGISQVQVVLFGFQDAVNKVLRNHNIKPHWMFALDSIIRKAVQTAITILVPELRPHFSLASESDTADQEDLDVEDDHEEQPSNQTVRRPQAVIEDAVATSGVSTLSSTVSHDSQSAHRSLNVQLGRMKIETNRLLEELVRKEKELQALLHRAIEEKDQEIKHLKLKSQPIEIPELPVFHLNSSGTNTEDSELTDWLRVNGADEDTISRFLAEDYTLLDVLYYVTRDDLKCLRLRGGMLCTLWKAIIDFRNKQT

In assay [6] the target is PCTAIRE1 (Homo sapiens, UniProt Q00536).
Sequence of PCTAIRE1 (Q00536 whole entry): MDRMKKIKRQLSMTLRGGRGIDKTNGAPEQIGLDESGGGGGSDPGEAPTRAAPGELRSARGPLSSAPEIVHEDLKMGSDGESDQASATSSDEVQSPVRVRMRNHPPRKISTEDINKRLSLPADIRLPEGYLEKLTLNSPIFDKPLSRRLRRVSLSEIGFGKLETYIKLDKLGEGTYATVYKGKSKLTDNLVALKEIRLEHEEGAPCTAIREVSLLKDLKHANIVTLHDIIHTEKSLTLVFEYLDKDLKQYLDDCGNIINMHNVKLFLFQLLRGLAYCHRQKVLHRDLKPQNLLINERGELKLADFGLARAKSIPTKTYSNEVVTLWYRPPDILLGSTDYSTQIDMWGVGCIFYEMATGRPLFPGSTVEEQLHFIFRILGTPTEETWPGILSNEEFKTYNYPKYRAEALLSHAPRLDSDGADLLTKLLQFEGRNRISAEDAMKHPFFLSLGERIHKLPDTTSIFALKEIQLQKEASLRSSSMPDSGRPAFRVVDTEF

Sequence of DAPK1 (P53355 whole entry): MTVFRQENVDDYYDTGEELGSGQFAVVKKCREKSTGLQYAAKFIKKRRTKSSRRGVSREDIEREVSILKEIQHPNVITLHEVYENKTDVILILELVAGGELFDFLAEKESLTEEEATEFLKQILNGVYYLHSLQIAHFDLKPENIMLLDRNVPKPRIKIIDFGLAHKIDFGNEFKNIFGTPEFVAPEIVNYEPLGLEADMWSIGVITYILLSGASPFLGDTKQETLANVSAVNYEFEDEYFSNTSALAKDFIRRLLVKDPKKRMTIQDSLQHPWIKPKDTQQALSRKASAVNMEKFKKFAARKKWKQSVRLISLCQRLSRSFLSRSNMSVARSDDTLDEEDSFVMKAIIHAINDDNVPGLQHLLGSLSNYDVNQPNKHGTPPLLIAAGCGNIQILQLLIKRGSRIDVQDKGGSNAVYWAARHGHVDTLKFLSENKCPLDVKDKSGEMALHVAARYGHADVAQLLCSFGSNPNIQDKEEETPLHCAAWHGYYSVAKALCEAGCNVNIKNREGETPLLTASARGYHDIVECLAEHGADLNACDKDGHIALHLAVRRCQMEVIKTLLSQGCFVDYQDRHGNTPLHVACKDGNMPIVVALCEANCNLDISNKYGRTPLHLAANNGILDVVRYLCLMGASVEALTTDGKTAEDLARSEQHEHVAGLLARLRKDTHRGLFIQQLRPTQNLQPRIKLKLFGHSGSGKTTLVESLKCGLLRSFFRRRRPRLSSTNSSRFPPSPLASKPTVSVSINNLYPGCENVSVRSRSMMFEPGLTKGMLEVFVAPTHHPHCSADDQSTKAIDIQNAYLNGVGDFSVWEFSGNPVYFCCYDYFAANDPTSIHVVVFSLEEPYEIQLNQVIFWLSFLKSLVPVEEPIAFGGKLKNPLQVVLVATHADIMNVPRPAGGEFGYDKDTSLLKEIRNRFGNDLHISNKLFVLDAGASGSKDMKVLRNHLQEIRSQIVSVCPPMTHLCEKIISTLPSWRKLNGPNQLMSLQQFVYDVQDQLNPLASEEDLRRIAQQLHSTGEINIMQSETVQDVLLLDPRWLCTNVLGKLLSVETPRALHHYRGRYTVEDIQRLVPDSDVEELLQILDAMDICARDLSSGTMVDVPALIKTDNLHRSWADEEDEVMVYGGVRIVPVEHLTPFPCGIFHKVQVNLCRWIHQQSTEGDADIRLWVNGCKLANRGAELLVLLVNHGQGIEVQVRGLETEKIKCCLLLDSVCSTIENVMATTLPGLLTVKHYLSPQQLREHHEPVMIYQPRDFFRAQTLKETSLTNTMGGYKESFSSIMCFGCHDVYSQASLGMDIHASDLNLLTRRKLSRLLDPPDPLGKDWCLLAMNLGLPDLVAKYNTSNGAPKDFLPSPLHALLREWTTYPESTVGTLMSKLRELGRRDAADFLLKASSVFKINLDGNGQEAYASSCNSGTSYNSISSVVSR

In the case of `Cc1cccc(-c2ccc(-c3cc4cnc(NCCCc5ccc(N)cc5)nc4n(CCCCN)c3=O)c(Cl)c2)n1` [compound 25, 8-(4-Aminobutyl)-2-((3-(4-aminophenyl)propyl)amino)-6-(2-chloro-4-(6-methylpyridin-2-yl)phenyl)pyrido[2,3-d]pyrimidin-7(8H)-one], the “ΔTm 25” value is 4.9 °C in assay [1]; 5.4 °C in assay [2]; -1.0 °C in assay [3]; 0.1 °C in assay [4]; 11.8 °C in assay [5]; 4.5 °C in assay [6].
Consider `CNc1ncc2cc(-c3ccc(-c4cccc(C)n4)cc3Cl)c(=O)n(C[C@H]3CC[C@H](N)CC3)c2n1` [compound 23, 23], for which the “ΔTm 23” value in assay [1] is 3.5 °C; in assay [2], 6.9 °C; in assay [3], -0.4 °C; in assay [4], 4.6 °C; in assay [5], 12.4 °C; in assay [6], 4.4 °C.
With `CNc1ncc2cc(-c3ccc(-c4cccc(C)n4)cc3Cl)c(=O)n(CCCCN)c2n1` [compound 20, MRLW5], the “ΔTm MRLW5 (20)” value is 1.3 °C in assay [1]; 2.9 °C in assay [2]; -0.8 °C in assay [3]; 1.0 °C in assay [4]; 12.3 °C in assay [5]; 2.3 °C in assay [6].
With `CNc1ncc2cc(-c3ccc(-c4cccc(C)n4)cc3Cl)c(=O)n(CCC3CCNCC3)c2n1` [compound 22, 6-(2-Chloro-4-(6-methylpyridin-2-yl)phenyl)-2-(methylamino)-8-(2-(piperidin-4-yl)ethyl)pyrido[2,3-d]pyrimidin-7(8H)-one], the “ΔTm 22” value is 2.5 °C in assay [1]; 4.8 °C in assay [2]; -0.8 °C in assay [3]; 0.7 °C in assay [4]; 12.0 °C in assay [5]; 3.0 °C in assay [6].
On to `Cc1cccc(-c2ccc(-c3cc4cnc(NC(CO)CO)nc4n(CCCCN)c3=O)c(Cl)c2)n1` [compound 24, 8-(4-Aminobutyl)-6-(2-chloro-4-(6-methylpyridin-2-yl)phenyl)-2-((1,3-dihydroxypropan-2-yl)amino)pyrido[2,3-d]pyrimidin-7(8H)-one], for which the “ΔTm MR24 (24)” value is 1.2 °C in assay [1]; 1.2 °C in assay [2]; -0.8 °C in assay [3]; -2.0 °C in assay [4]; 9.0 °C in assay [5]; 1.7 °C in assay [6].
In the case of `Cc1cccc(-c2ccc(-c3cc4cnc(NCCCN5CCOCC5)nc4n(CCCCN)c3=O)c(Cl)c2)n1` [compound 26, MR26], the “ΔTm MR26 (26)” value in assay [1] was 0.9 °C; in assay [2], 2.2 °C; in assay [3] it was -0.7 °C; in assay [4], -2.0 °C; in assay [5], 9.8 °C; in assay [6] it was 1.8 °C.
